Results as given in patent US6694171B1, “X-ray imaging of tumors with dextran carrier of platinum compounds” (Yeda Research and Development, priority 1997, dated 2004).

Assay: Interaction between CDDP and ADH or hydrazine by OPDA colour reaction (FIGS. 4A-4B)
Assay type: physicochemical
Details: 6 μg CDDP, OPDA 4 mg/ml
Experimental: The absorbance at 703 nm was determined (FIG. 4A).

Compound: NNC(=O)CCCCC(=O)NN [ADH, adipic acid dihydrazide]
- leveling-off ratio ligand:CDDP: 20
